# According to ChEMBL document CHEMBL6153094, “Rationally designed highly amphipathic antimicrobial peptides demonstrating superior bacterial selectivity relative to the corresponding α-helix peptide” (Eur J Med Chem, 2025):
# Where a SMILES comes first, the peptide text is derived from it. Bridges are numbered along the chain shown (N, C = ends). [ ]: non-standard residue; d: D form. The star is where a group is joined. X1 = CC[C@H](C)CCCCC(=O)*; Dab = NCC[C@H](N)C(=O)O
# Experiments:
# [1] = Toxicity in male Balb/c mouse assessed as inflammatory cell infiltration in lungs at 22.48 mg/kg, ip administered for 7 days by H and E staining based analysis; format: organism-based; details: in vivo, 168 h, time 7 day
# [2] = Acute toxicity in male Balb/c mouse assessed as animal death at 30 mg/kg, ip measured within 30 mins; format: organism-based; details: in vivo, 0.5 h
# [3] = Toxicity in male Balb/c mouse assessed as lethal dose administered intraperitoneally for 7 days; details: in vivo, route ip, time 7 day
# [4] = Toxicity in male Balb/c mouse assessed as balloon-like degeneration in liver at 22.48 mg/kg, ip administered for 7 days by H and E staining based analysis; format: organism-based; details: in vivo, 168 h, time 7 day
# [5] = Toxicity in male Balb/c mouse assessed as alveolar septum thickening at 22.48 mg/kg, ip administered for 7 days by H and E staining based analysis; format: organism-based; details: in vivo, 168 h, time 7 day
# [6] = Toxicity in male Balb/c mouse assessed as edema in liver at 22.48 mg/kg, ip administered for 7 days by H and E staining based analysis; format: organism-based; details: in vivo, 168 h, time 7 day
# [7] = Toxicity in male Balb/c mouse assessed as hemorrhage in liver at 22.48 mg/kg, ip administered for 7 days by H and E staining based analysis; format: organism-based; details: in vivo, 168 h, time 7 day
# [8] = Toxicity in male Balb/c mouse assessed as lung bubble contraction at 22.48 mg/kg, ip administered for 7 days by H and E staining based analysis; format: organism-based; details: in vivo, 168 h, time 7 day
# Staphylococcus aureus [9] = experiment: Antibacterial activity against Staphylococcus aureus ATCC 25923 assessed as fold change in MIC incubated for 18 hrs in presence of NaCl by Mueller-Hinton broth based assay; format: functional
# Staphylococcus aureus [10] = experiment: Antibiofilm activity in Staphylococcus aureus ATCC 25923 assessed as inhibition of biofilm formation at 2 times of MIC incubated for 24 hrs by crystal violet staining based analysis relative to control; format: functional
# Pseudomonas aeruginosa [11] = experiment: Resistance fold, ratio of MIC for Pseudomonas aeruginosa ATCC 27853 measured after 20 passages to MIC for Pseudomonas aeruginosa ATCC 27853 measured immediately; format: functional
# Enterococcus faecalis = experiment: Antimicrobial activity against Enterococcus faecalis ATCC 29212 assessed as inhibition of visible bacterial growth incubated for 18 hrs by broth-dilution method; format: functional
# Pseudomonas aeruginosa [12] = experiment: Antibacterial activity against Pseudomonas aeruginosa ATCC 27853 assessed as fold change in MIC incubated for 18 hrs in presence of KCl by Mueller-Hinton broth based assay; format: functional
# Klebsiella pneumoniae = experiment: Antimicrobial activity against Klebsiella pneumoniae ATCC 700603 assessed as inhibition of visible bacterial growth incubated for 18 hrs by broth microdilution method; format: functional
# Staphylococcus aureus [13] = experiment: Synergistic antimicrobial activity against gentamicin-resistant Staphylococcus aureus ATCC 25923 assessed as fractional inhibitory concentration index incubated for 18 hrs in presence of gentamicin by checkerboard microdilution method; format: functional
# Staphylococcus aureus [14] = experiment: Antibacterial activity against Staphylococcus aureus ATCC 25923 assessed as fold change in MIC incubated for 18 hrs in presence of MgCl2 by Mueller-Hinton broth based assay; format: functional
# Pseudomonas aeruginosa [15] = experiment: Resistance fold, ratio of MIC for Pseudomonas aeruginosa ATCC 27853 measured after 20 passages in presence of gentamicin to MIC for Pseudomonas aeruginosa ATCC 27853 measured immediately in presence of gentamicin; format: functional
# Pseudomonas aeruginosa [16] = experiment: Additive antimicrobial activity against gentamicin-resistant Pseudomonas aeruginosa ATCC 27853 assessed as fractional inhibitory concentration index incubated for 18 hrs in presence of gentamicin by checkerboard microdilution method; format: functional
# Staphylococcus aureus [17] = experiment: Antimicrobial activity against Staphylococcus aureus ATCC 25923 assessed as inhibition of visible bacterial growth incubated for 18 hrs by broth-dilution method; format: functional
# Staphylococcus aureus [18] = experiment: Antimicrobial activity against methicillin-drug resistant Staphylococcus aureus ATCC 33591 assessed as concentration required to eliminate 90% bacteria incubated for 18 hrs by broth-microdilution method; format: functional
# Acinetobacter baumannii = experiment: Antimicrobial activity against Acinetobacter baumannii ATCC 19606 assessed as inhibition of visible bacterial growth incubated for 18 hrs by broth microdilution method; format: functional
# Staphylococcus aureus [19] = experiment: Resistance fold, ratio of MIC for Staphylococcus aureus ATCC 25923 measured after 20 passages to MIC for Staphylococcus aureus ATCC 25923 measured immediately; format: functional
# Pseudomonas aeruginosa [20] = experiment: Antibacterial activity against Pseudomonas aeruginosa ATCC 27853 assessed as fold change in MIC incubated for 18 hrs in presence of ZnCl2 by Mueller-Hinton broth based assay; format: functional
# Staphylococcus aureus [21] = experiment: Antibacterial activity against Staphylococcus aureus ATCC 25923 assessed as fold change in MIC incubated for 18 hrs in presence of KCl by Mueller-Hinton broth based assay; format: functional
# Staphylococcus aureus [22] = experiment: Antibacterial activity against Staphylococcus aureus ATCC 25923 assessed as fold change in MIC incubated for 18 hrs in presence of FeCl3 by Mueller-Hinton broth based assay; format: functional
# Pseudomonas aeruginosa [23] = experiment: Antibacterial activity against Pseudomonas aeruginosa ATCC 27853 assessed as fold change in MIC incubated for 18 hrs in presence of MgCl2 by Mueller-Hinton broth based assay; format: functional
# Staphylococcus aureus [24] = experiment: Antibiofilm activity in Staphylococcus aureus ATCC 25923 assessed as inhibition of biofilm formation at 4 times of MIC incubated for 24 hrs by crystal violet staining based analysis relative to control; format: functional
# Pseudomonas aeruginosa [25] = experiment: Antibacterial activity against Pseudomonas aeruginosa ATCC 27853 assessed as fold change in MIC incubated for 18 hrs in presence of FeCl3 by Mueller-Hinton broth based assay; format: functional
# Bacillus subtilis = experiment: Antimicrobial activity against Bacillus subtilis ATCC 23857 assessed as inhibition of visible bacterial growth incubated for 18 hrs by broth microdilution method; format: functional
# Staphylococcus aureus [26] = experiment: Antibiofilm activity in Staphylococcus aureus ATCC 25923 assessed as inhibition of biofilm formation at 1 times of MIC incubated for 24 hrs by crystal violet staining based analysis relative to control; format: functional
# [27] = system: Staphylococcus epidermidis; experiment: Antimicrobial activity against Staphylococcus epidermidis ATCC 12228 assessed as inhibition of visible bacterial growth incubated for 18 hrs by broth-dilution method; format: functional
# Pseudomonas aeruginosa [28] = experiment: Antimicrobial activity against Pseudomonas aeruginosa ATCC 27853 assessed as inhibition of visible bacterial growth incubated for 18 hrs by broth microdilution method; format: functional
# Escherichia coli = experiment: Antimicrobial activity against Escherichia coli ATCC 25922 assessed as inhibition of visible bacterial growth incubated for 18 hrs by broth microdilution method; format: functional
# Staphylococcus aureus [29] = experiment: Resistance fold, ratio of MIC for Staphylococcus aureus ATCC 25923 measured after 20 passages in presence of gentamicin to MIC for Staphylococcus aureus ATCC 25923 measured immediately in presence of gentamicin; format: functional
# Staphylococcus aureus [30] = experiment: Antibiofilm activity in Staphylococcus aureus ATCC 25923 assessed as inhibition of biofilm formation at 1/2 times of MIC incubated for 24 hrs by crystal violet staining based analysis relative to control; format: functional
# Pseudomonas aeruginosa [31] = experiment: Antibacterial activity against Pseudomonas aeruginosa ATCC 27853 assessed as fold change in MIC incubated for 18 hrs in presence of NaCl by Mueller-Hinton broth based assay; format: functional
# Staphylococcus aureus [32] = experiment: Antibacterial activity against Staphylococcus aureus ATCC 25923 assessed as fold change in MIC incubated for 18 hrs in presence of ZnCl2 by Mueller-Hinton broth based assay; format: functional
# Pseudomonas aeruginosa [33] = experiment: Antibiofilm activity in Pseudomonas aeruginosa ATCC 27853 assessed as inhibition of biofilm formation at 1 times of MIC incubated for 24 hrs by crystal violet staining based analysis relative to control; format: functional
compound,measurement,setting,value
CC(C)CCCCC(=O)N[C@@H](CCN)C(=O)N[C@H](C(=O)N[C@@H](CCN)C(=O)N[C@H]1CCNC(=O)[C@H]([C@@H](C)O)NC(=O)[C@H](CCN)NC(=O)[C@H](CCN)NC(=O)[C@H](CC(C)C)NC(=O)[C@@H](Cc2ccccc2)NC(=O)[C@H](CCN)NC1=O)[C@@H](C)O.CC[C@H](C)CCCCC(=O)N[C@@H](CCN)C(=O)N[C@H](C(=O)N[C@@H](CCN)C(=O)N[C@H]1CCNC(=O)[C@H]([C@@H](C)O)NC(=O)[C@H](CCN)NC(=O)[C@H](CCN)NC(=O)[C@H](CC(C)C)NC(=O)[C@@H](Cc2ccccc2)NC(=O)[C@H](CCN)NC1=O)[C@@H](C)O (X1-[Dab]T[Dab][Dab][Dab][dF]L[Dab][Dab]T; lactam 4-C) [listing 1 of 2 here],Activity,[1],Toxic
same,Activity,[2],Toxic
same,LD50 at 168 h,[3],22.5 mg/kg
same,Activity,[4],Toxic
same,Activity,[5],Toxic
same,Activity,[6],Toxic
same,Activity,[7],Toxic
same,Activity,[8],Toxic
CC(C)CCCCC(=O)N[C@@H](CCN)C(=O)N[C@H](C(=O)N[C@@H](CCN)C(=O)N[C@H]1CCNC(=O)[C@H]([C@@H](C)O)NC(=O)[C@H](CCN)NC(=O)[C@H](CCN)NC(=O)[C@H](CC(C)C)NC(=O)[C@@H](Cc2ccccc2)NC(=O)[C@H](CCN)NC1=O)[C@@H](C)O.CC[C@H](C)CCCCC(=O)N[C@@H](CCN)C(=O)N[C@H](C(=O)N[C@@H](CCN)C(=O)N[C@H]1CCNC(=O)[C@H]([C@@H](C)O)NC(=O)[C@H](CCN)NC(=O)[C@H](CCN)NC(=O)[C@H](CC(C)C)NC(=O)[C@@H](Cc2ccccc2)NC(=O)[C@H](CCN)NC1=O)[C@@H](C)O (X1-[Dab]T[Dab][Dab][Dab][dF]L[Dab][Dab]T; lactam 4-C) [listing 2 of 2 here],fold change (FC),Staphylococcus aureus [9],8
same,inhibition (INH),Staphylococcus aureus [10],~80%
same,fold change (FC),Pseudomonas aeruginosa [11],8
same,MIC,Enterococcus faecalis,128 µM
same,fold change (FC),Pseudomonas aeruginosa [12],<=2
same,MIC,Klebsiella pneumoniae,< 1 µM
same,fractional inhibitory concentration index (FICI),Staphylococcus aureus [13],0.375
same,fold change (FC),Staphylococcus aureus [14],<=2
same,fold change (FC),Pseudomonas aeruginosa [15],8
same,fractional inhibitory concentration index (FICI),Pseudomonas aeruginosa [16],0.563
same,MIC,Staphylococcus aureus [17],16 µM
same,EC90,Staphylococcus aureus [18],11.1 µM
same,MIC,Acinetobacter baumannii,< 1 µM
same,fold change (FC),Staphylococcus aureus [19],4
same,fold change (FC),Pseudomonas aeruginosa [20],<=2
same,fold change (FC),Staphylococcus aureus [21],<=2
same,fold change (FC),Staphylococcus aureus [22],<=2
same,fold change (FC),Pseudomonas aeruginosa [23],<=2
same,inhibition (INH),Staphylococcus aureus [24],~80%
same,fold change (FC),Pseudomonas aeruginosa [25],<=2
same,MIC,Bacillus subtilis,8 µM
same,inhibition (INH),Staphylococcus aureus [26],75%
same,MIC,[27],8 µM
same,MIC,Pseudomonas aeruginosa [28],< 1 µM
same,MIC,Escherichia coli,< 1 µM
same,fold change (FC),Staphylococcus aureus [29],8
same,inhibition (INH),Staphylococcus aureus [30],55%
same,fold change (FC),Pseudomonas aeruginosa [31],2
same,fold change (FC),Staphylococcus aureus [32],<=2
same,inhibition (INH),Pseudomonas aeruginosa [33],>90%
